# Data published in patent publication US20180042982A1, “Methods for Treating HCV” (priority 2013, published 2018).
# Key:
# [1] = tested on: resistance-associated variants in GT 1a (H77) replicon; assay: Activity against resistance-associated variants, GT 1a; type: cell-based, Hepatitis C virus
# Description: (§1) However, these variants had in vitro replication capacities of only 1.5% and 9.2% that of their corresponding wild-type replicons.
# [2] = tested on: resistance-associated variants in GT 1b (Con-1) replicon; assay: Activity against resistance-associated variants, GT 1b; type: cell-based, Hepatitis C virus
# Description: as §1
# HCV replicon Genotype 3a = assay: HCV subgenomic stable replicon cell culture assay, genotype 3a; type: cell-based; conditions: Hepatitis C virus, read-out: Mean EC50, nM, ± Std. Dev.
# Description: as §1
# [3] = tested on: replicon containing GT3a NS3 protease; assay: Resistant colony selection in replicon containing GT3a NS3 protease; type: cell-based, Hepatitis C virus; conditions: concentrations ≧100-fold over its EC50 value
# Description: as §1
# HCV = assay: Anti-HCV efficacy of Compound 1 at different doses; design: species or system Hepatitis C virus; conditions: 200-300 mg Compound 1 compared with 400 mg Compound 1
smiles,measurement,setting,value
CC(C)(C)[C@@H]1NC(=O)O[C@@H]2CCC[C@H]2OC/C=C/C(F)(F)c2nc3ccccc3nc2O[C@@H]2C[C@@H](C(=O)N[C@]3(C(=O)NS(=O)(=O)C4(C)CC4)C[C@H]3C(F)F)N(C2)C1=O [Compound 1],activity against common variants at NS3 amino acid positions 155 and 168,[1]; GT1a variants conferring resistance to other HCV protease inhibitors,retained its activity
same,activity against NS5A inhibitor and NS5B inhibitor resistance-associated variants,"[1]; M28T, M28V, Q30D, Q30R, Y93C, Y93H, Y93N, L31V+Y93H, C316Y, M414T, Y448C, Y448H, S556G and S559G in GT 1a",potent activity
same,inhibitory activity against NS3 resistance-associated variants,"[1]; V36M, R155K, D168A and D168V in GT 1a (H77)",nearly equivalent to that against wild-type HCV replicon
same,activity against common variants at NS3 amino acid positions 155 and 168,[2]; GT1b variants conferring resistance to other HCV protease inhibitors,retained its activity
same,activity against NS5A inhibitor and NS5B inhibitor resistance-associated variants,"[2]; L28T, Y93H, S282T, C316Y, Y448H and S556G in GT 1b",potent activity
same,inhibitory activity against NS3 resistance-associated variants,"[2]; T54A, R155K, D168V and V170A in GT 1b (Con-1)",nearly equivalent to that against wild-type HCV replicon
same,EC50,HCV replicon Genotype 3a,1.6 ± 0.49 nM
same,resistant colony selection,[3],selected very few colonies
same,anti-HCV efficacy of 200-300 mg versus 400 mg,HCV,comparable anti-HCV efficacy
